{"source": "patent US20250339409A1", "about": "“USES OF PAN BET INHIBITORS” (VYNE THERAPEUTICS INC., priority 2021, published 2025)", "system": "IL4, IL13, IL31, CCL17, CCL26, CCL2 gene expression in Th2 stimulated human skin", "experiment": "Th2 stimulated human skin explants, RT-qPCR of biomarkers", "type": "cell-based", "conditions": "for inhibition at 0.01 µM / inhibition at 0.04 µM / inhibition at 0.16 µM / inhibition at 0.63 µM / inhibition at 2.5 µM / inhibition at 10 µM: Homo sapiens, calculated to Th2 stimulated control; for inhibition at 2.5 µM: 2.50 μM", "from_the_text": "Human skin biopsy tissue was stimulated to induce a Th17 immuno-phenotype using a method derived from Feghali-Bostwick et al. Induction of a Th17 phenotype in human skin—a mimic of dermal inflammatory diseases, Methods and Protocols, 2, 45 (2019). The pharmacodynamic assay described therein involves a similar paradigm to elicit a Th2 response and is used to evaluate the therapeutic potential of the active compounds (e.g., BETi1; and\nFreshly excised healthy human skin tissue from abdominoplasties is defatted, cleaned and sectioned into 7 mm biopsies. The biopsies are placed in Transwell® inserts with the epidermis apical and exposed to air and the dermis submerged in media in the basal chamber. The biopsies are pre-treated overnight at 37° C., 5% CO2 with different compounds and controls added to the media in the basal chamber.\nThe next day, contents of the basal chamber is replaced with fresh media containing the test compound (listed below) and a stimulation cocktail for either Th2 inflammation (proprietary of service provider cocktail) or Th17 inflammation (mix of antibodies against CD3, CD28, IL-4, IFNγ and recombinant IL-1β, IL-6, IL-21, TGF-β). The biopsies are incubated at 37° C., 5% CO2 for a further 24 hrs.\nA list of all the treatments is provided below: • 1. Untreated control (for both stimulations) • 2. Th2 stimulated control • 3. Th17 stimulated control • 4. Th2+BETia at 0.01, 0.04, 0.16, 0.63, 2.50, and 10 μM • 5. Th2+BETi1 at 0.01, 0.04, 0.16, 0.63, 2.50, and 10 μM • 6. Th2+Ruxolitinib at 0.01, 0.04, 0.16, 0.63, 2.50, and 10 μM • 7. Th2+betamethasone valerate 210 μM (equivalent to 0.01%) • 8. Th17+BETia at 10 μM • 9. Th17+BETi1 at 10 μM • 10. Th17+Ruxolitinib at 10 μM • 11. Th17+betamethasone valerate 210 μM (equivalent to 0.01%)\nAfter harvesting, the biopsies are cut in half, and one half is homogenized and used for RNA extraction by standard methods and inflammatory pathways is assessed by RT-qPCR. The ability of BETi1 or BETia to inhibit the activity of up to six biomarkers per stimulation is reported as percent activity calculated to stimulated control and fold change in gene expression calculated to untreated control with respect to Th2 (IL4, IL13, IL31, CCL17, CCL26, CCL2) and Th17 (CXCL10, IL17α, IL22, IL36γ, CCL20, SerpinB4). Statistical analysis is performed on data sets from all 3 donors combined and compares the percent inhibition of each biomarker by each treatment calculated to its respective vehicle.\nqPCR values were calculated using the relative quantification approach outlined by Livak, et al (2001) (Section 9, Reference 2). The Ct values (threshold cycle) defined as the fractional cycle number at which the amount of amplified target reaches a fixed threshold, were normalised to the Ct value of an internal biomarker or ‘housekeeping gene’ (GAPDH). The higher limit of detection was set at a Ct value of 40, and any target having not reached Ct by 40 cycles was set to this value. The delta Ct values (dt(Ct)) refers to the Ct of the gene of interest minus the Ct of the internal biomarker. The ddt(Ct) is the dt(Ct) value of the gene minus the average dt(Ct) value of the untreated samples. The ddt(Ct) is converted to power by the equation; =power(2,dt(Ct)). Fold change was calculated as ratio of the power of the gene of interest divided by the average power of the untreated samples. This normalizes the untreated samplers to a value of 1. For the comparison of multiple skin donors, the stimulated samples were normalized to 100% maximum activity (such to normalize variability between different skin donors). Percent activity was calculated as the percent increase or decrease in stimulation compared to the stimulated samples set at 100% maximum activity. Percent change was calculated as: Inhibition=(100−(avg % activity/stimulated)*100). Statistical analysis was performed using One-way ANOVA with Dunnett's Multiple Comparisons (non parametric). […]", "key": {"[1]": {"conditions": "Th2 stimulated human skin explants, 10 μM, compared to untreated skin"}}, "note": "Read-outs that look alike come from different tables or passages of the source.", "data": [{"smiles": "Cn1cc(-c2cccc(O)c2Oc2ccccc2)c2cc[nH]c2c1=O", "note": "[BETi1]", "values": [{"measurement": "inhibition at 0.01 µM", "setting": "read-out: % Inhibition CCL17", "result": 22.4, "unit": "%"}, {"measurement": "inhibition at 0.01 µM", "setting": "read-out: % Inhibition CCL26", "result": 31.3, "unit": "%"}, {"measurement": "inhibition at 0.01 µM", "setting": "read-out: % Inhibition IL31", "result": "< 0", "unit": "%"}, {"measurement": "inhibition at 0.01 µM", "setting": "read-out: % inhibition CCL2", "result": "< 0", "unit": "%"}, {"measurement": "inhibition at 0.01 µM", "setting": "read-out: % inhibition IL4", "result": 20.4, "unit": "%"}, {"measurement": "inhibition at 0.01 µM", "setting": "read-out: % inhibition IL13", "result": 22.4, "unit": "%"}, {"measurement": "inhibition at 0.04 µM", "setting": "read-out: % Inhibition CCL17", "result": "< 0", "unit": "%"}, {"measurement": "inhibition at 0.04 µM", "setting": "read-out: % Inhibition CCL26", "result": 10.9, "unit": "%"}, {"measurement": "inhibition at 0.04 µM", "setting": "read-out: % Inhibition IL31", "result": "< 0", "unit": "%"}, {"measurement": "inhibition at 0.04 µM", "setting": "read-out: % inhibition CCL2", "result": "< 0", "unit": "%"}, {"measurement": "inhibition at 0.04 µM", "setting": "read-out: % inhibition IL4", "result": 51.8, "unit": "%"}, {"measurement": "inhibition at 0.04 µM", "setting": "read-out: % inhibition IL13", "result": 3, "unit": "%"}, {"measurement": "inhibition at 0.16 µM", "setting": "read-out: % Inhibition CCL26", "result": 15.2, "unit": "%"}, {"measurement": "inhibition at 0.16 µM", "setting": "read-out: % Inhibition IL31", "result": "~74", "unit": "%"}, {"measurement": "inhibition at 0.16 µM", "setting": "read-out: % inhibition CCL2", "result": 40, "unit": "%"}, {"measurement": "inhibition at 0.16 µM", "setting": "read-out: % inhibition IL4", "result": 83.4, "unit": "%"}, {"measurement": "inhibition at 0.16 µM", "setting": "read-out: % inhibition IL13", "result": 76.3, "unit": "%"}, {"measurement": "inhibition at 0.63 µM", "setting": "read-out: % Inhibition CCL17", "result": 48, "unit": "%"}, {"measurement": "inhibition at 0.63 µM", "setting": "read-out: % Inhibition CCL26", "result": "< 0", "unit": "%"}, {"measurement": "inhibition at 0.63 µM", "setting": "read-out: % inhibition CCL2", "result": 34.9, "unit": "%"}, {"measurement": "inhibition at 0.63 µM", "setting": "read-out: % inhibition IL4", "result": "~80", "unit": "%"}, {"measurement": "inhibition at 0.63 µM", "setting": "read-out: % inhibition IL13", "result": "~84", "unit": "%"}, {"measurement": "inhibition at 2.5 µM", "setting": "read-out: % Inhibition CCL17", "result": 62.3, "unit": "%"}, {"measurement": "inhibition at 2.5 µM", "setting": "read-out: % Inhibition CCL26", "result": "< 0", "unit": "%"}, {"measurement": "inhibition at 2.5 µM", "setting": "read-out: % inhibition CCL2", "result": 76.5, "unit": "%"}, {"measurement": "inhibition at 2.5 µM", "setting": "read-out: % inhibition IL4", "result": 82, "unit": "%"}, {"measurement": "inhibition at 2.5 µM", "setting": "read-out: % inhibition IL13", "result": 90.2, "unit": "%"}, {"measurement": "inhibition at 10 µM", "setting": "10 μM, read-out: % Inhibition CCL17", "result": "~62", "unit": "%"}, {"measurement": "inhibition at 10 µM", "setting": "10 μM, read-out: % Inhibition CCL26", "result": "< 0", "unit": "%"}, {"measurement": "inhibition at 10 µM", "setting": "10 μM, read-out: % Inhibition IL31", "result": 95.4, "unit": "%"}, {"measurement": "inhibition at 10 µM", "setting": "10 μM, read-out: % inhibition IL4", "result": 74.9, "unit": "%"}, {"measurement": "inhibition at 10 µM", "setting": "10 μM, read-out: % inhibition IL13", "result": 93.3, "unit": "%"}, {"measurement": "highest percent inhibition of IL4, IL13, IL31, and CCL2 gene expression", "setting": "Th2-mediated stimulation, compared to stimulated and untreated", "result": "76-85%"}, {"measurement": "inhibition of interleukin IL-4 expression", "setting": "[1]", "result": 75, "unit": "%"}, {"measurement": "inhibition of interleukin IL-13 expression", "setting": "[1]", "result": 93, "unit": "%"}, {"measurement": "inhibition of interleukin IL-31 expression", "setting": "[1]", "result": 95, "unit": "%"}, {"measurement": "reduction in CXCL10, IL-17a, IL-36γ, IL-4, IL-13 or IL-31 levels", "setting": "human skin induced to exhibit Th2 or Th17 phenotype", "result": "> 75", "unit": "%"}]}]}
